pIC50: −log10 of the molar value. Like-named read-outs stand apart in the source and are kept apart here.
Columns and labels:
[1] = tested on: human SKM-1 acute myeloid leukemia cells; assay: SKM-1 antiproliferation cell-based assay (ATPlite)
How it was run: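 Log-phase cells in RPMI 1640/15% FBS were seeded at 34722 cells/mL and exposed for 4 days to nine-concentration DMSO serial dilutions in triplicate. Viability was read as ATP luminescence (ATPlite 1step), and IC50 values came from variable-slope non-linear regression.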

[2] = molecular target: T1, human BRD4 bromodomain II (Homo sapiens, UniProt O60885); assay: Bromodomain binding assay (AlphaScreen), BRD4 BDII
T1 construct: human BRD4 bromodomain II [based on Genbank NM_058243, residues 349-460]; host or cells: E. coli
How it was run: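 E. coli-expressed N-terminal His6-tagged human BRD4 BDII (residues 349-460) or BDI (residues 44-170) was preincubated 30 min at room temperature with compound (10-point, 3-fold) in pH 7.5 HEPES buffer, 1% DMSO. Displacement of biotinylated tetra-acetylated H4 1-21 peptide was read by AlphaScreen, and IC50 came from curve fitting.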

[3] = Homo sapiens, SKM-1, 96 h, SKM-1 antiproliferation assay, 4 days, Table C2
[4] = AlphaScreen assay, Table C2, read-out: BRD4 BDII IC50
[5] = Homo sapiens, SKM-1, SKM-1 antiproliferation assay
[6] = BRD4 BDII AlphaScreen assay, read-out: BRD4 BD2 IC50

Compound | GI50 [1, 3] | pIC50 [2, 4] | GI50 [1, 5] | pIC50 [2, 6] | GI50 ([1]; SKM-1 antiproliferation assay)
Cn1ccn(-c2ccc(-c3cc(F)cc(-c4ccnc(N5CCC(N)(CO)C5)c4)c3O)cc2Cl)c1=O (centres unmarked) [Example 750, 1-(3′-(2-(3-amino-3-(hydroxymethyl)pyrrolidin-1-yl)pyridin-4-yl)-3-chloro-5′-fluoro-2′-hydroxy-[1,1′-biphenyl]-4-yl)-3-methyl-1H-imidazol-2(3H)-one] | 0.3 to 30 nM | 9.00 to 11.00 | – | – | –
Cc1cc(-c2ccc(-n3ccn(C)c3=O)c(C)c2)c(O)c(-c2cccc(N3CCN(C(C)(C)C)CC3)c2)n1 [Example 1012, 1-(4-(2-(3-(4-(tert-butyl)piperazin-1-yl)phenyl)-3-hydroxy-6-methylpyridin-4-yl)-2-methylphenyl)-3-methyl-1H-imidazol-2(3H)-one] | – | – | 0.3 to 30 nM | 8.00 to 9.00 | –
Cn1ccn(-c2ccc(-c3cc(Cl)cc(-c4cccc(N5CCN(C(C)(C)C)CC5)c4)c3O)cc2Cl)c1=O [Example 1024, 1-(3″-(4-(tert-butyl)piperazin-1-yl)-3,5′-dichloro-2′-hydroxy-[1,1′:3′,1″-terphenyl]-4-yl)-3-methyl-1H-imidazol-2(3H)-one] | – | – | 0.3 to 30 nM | 8.00 to 9.00 | –
Cn1ccn(-c2ccc(-c3cc(Cl)cc(-c4cncc(N5CC[C@H](N)C5)c4)c3O)cc2Cl)c1=O [Example 510, (S)-1-(3′-(5-(3-aminopyrrolidin-1-yl)pyridin-3-yl)-3,5′-dichloro-2′-hydroxy-[1,1′-biphenyl]-4-yl)-3-methyl-1H-imidazol-2(3H)-one] | 30 to 300 nM | 7.00 to 8.00 | – | – | –
CN1CCN(c2ccc(-c3cccc(-c4ccnc(N5CCCC(N)C5)c4)c3O)cc2Cl)C1=O (centres unmarked) [Example 301, 1-(3′-(2-(3-aminopiperidin-1-yl)pyridin-4-yl)-3-chloro-2′-hydroxy-[1,1′-biphenyl]-4-yl)-3-methylimidazolidin-2-one] | 30 to 300 nM | 8.00 to 9.00 | – | – | –
Cn1ccn(-c2ccc(-c3cc(F)cc(-c4ccnc(N5CC[C@@](C)(N)C5)c4)c3O)cc2Cl)c1=O [Example 716, (R)-1-(3′-(2-(3-amino-3-methylpyrrolidin-1-yl)pyridin-4-yl)-3-chloro-5′-fluoro-2′-hydroxy-[1,1′-biphenyl]-4-yl)-3-methyl-1,3-dihydro-] | 0.3 to 30 nM | 9.00 to 11.00 | – | – | –
Cn1ccn(-c2ccc(-c3ccnc(-c4cnc(N)c(N5CCN(C(C)(C)C)CC5)c4)c3O)cc2Cl)c1=O [Example 984, 1-(4-(6′-amino-5′-(4-(tert-butyl)piperazin-1-yl)-3-hydroxy-[2,3′-bipyridin]-4-yl)-2-chlorophenyl)-3-methyl-1H-imidazol-2(3H)-one] | – | – | 0.3 to 30 nM | 7.00 to 8.00 | –
CNc1ncc(-c2cc(F)cc(-c3ccc(-n4ccn(C)c4=O)c(Cl)c3)c2O)cc1N1CCC2(CCN2C(C)C)C1 (centres unmarked) [Example 965, 1-{3-Chloro-5′-fluoro-2′-hydroxy-3′-[5-(1-isopropyl-1,6-diaza-spiro[3.4]oct-6-yl)-6-methylamino-pyridin-3-yl]-biphenyl-4-yl}-3-methyl-1,3-dihydro-imidazol-2-one] | – | – | 0.3 to 30 nM | 8.00 to 9.00 | –
Cn1ccn(-c2ccc(-c3cc(F)cc(-c4ccnc(N5CCC(C)(NS(C)(=O)=O)C5)c4)c3O)cc2Cl)c1=O (centres unmarked) [Example 792, N-(1-(4-(3′-chloro-5-fluoro-2-hydroxy-4′-(3-methyl-2-oxo-2,3-dihydro-1H-imidazol-1-yl)-[1,1′-biphenyl]-3-yl)pyridin-2-yl)-3-methylpyrrolidin-3-yl)methanesulfonamide] | 300 to 3000 nM | < 7.00 | – | – | –
Cn1ccn(-c2ccc(-c3cc(F)cc(-c4cccc(N5CCN(C(C)(C)C)CC5)c4)c3O)cc2F)c1=O [Example 945, 1-(3″-(4-(tert-butyl)piperazin-1-yl)-3,5′-difluoro-2′-hydroxy-[1,1′:3′,1″-terphenyl]-4-yl)-3-methyl-1H-imidazol-2(3H)-one] | – | – | 0.3 to 30 nM | 8.00 to 9.00 | –
CC(=O)NC1(C)C2CCC1CN(c1cc(-c3cc(F)cc(-c4ccc(-n5ccn(C)c5=O)c(Cl)c4)c3O)ccn1)C2 (centres unmarked) [Example 780, N-(3-(4-(3′-chloro-5-fluoro-2-hydroxy-4′-(3-methyl-2-oxo-2,3-dihydro-1H-imidazol-1-yl)-[1,1′-biphenyl]-3-yl)pyridin-2-yl)-8-methyl-3-azabicyclo[3.2.1]octan-8-yl)acetamide] | 30 to 300 nM | 8.00 to 9.00 | – | – | –
CC(=O)Nc1c(F)cc(-c2cccc(-c3cc(N4CCNCC4)no3)c2O)cc1OC1CC1 [Example 135, N-(3-cyclopropoxy-5-fluoro-2′-hydroxy-3′-(3-(piperazin-1-yl)isoxazol-5-yl)-[1,1′-biphenyl]-4-yl)acetamide 2,2,2-trifluoroacetate] | 300 to 3000 nM | 8.00 to 9.00 | – | – | –
CN1CCN(c2ccc(-c3cccc(-c4cnnc(N5CCNCC5)c4)c3O)cc2Cl)C1=O [Example 343, 1-(3-chloro-2′-hydroxy-3′-(6-(piperazin-1-yl)pyridazin-4-yl)-[1,1′-biphenyl]-4-yl)-3-methylimidazolidin-2-one] | 30 to 300 nM | 8.00 to 9.00 | – | – | –
Cc1ncc(-c2cc(F)cc(-c3ccc(-n4ccn(C)c4=O)c(Cl)c3)c2O)cc1N1CC(F)(F)[C@](C)(O)C1 [Example 898] | – | – | 30 to 300 nM | 8.00 to 9.00 | –
CC(C)Oc1cc(-c2cc(F)cc(-c3cccc(N4CCN(C(C)(C)C)CC4)c3)c2O)cc(Cl)c1-n1ccn(C)c1=O [Example 937, 1-(3″-(4-(tert-butyl)piperazin-1-yl)-3-chloro-5′-fluoro-2′-hydroxy-5-isopropoxy-[1,1′:3′,1″-terphenyl]-4-yl)-3-methyl-1,3-dihydro-2H-imidazol-2-one] | – | – | 30 to 300 nM | 7.00 to 8.00 | –
Cn1ccn(-c2ccc(-c3cc(F)cc(-c4cncc(N5CCC[C@H](N)C5)c4)c3O)cc2Cl)c1=O [Example 461, (S)-1-(3′-(5-(3-aminopiperidin-1-yl)pyridin-3-yl)-3-chloro-5′-fluoro-2′-hydroxy-[1,1′-biphenyl]-4-yl)-3-methyl-1,3-dihydro-2H-imidazol-2-one] | 0.3 to 30 nM | 9.00 to 11.00 | – | – | –
Cn1cc(-c2cc(F)cc(-c3ccc(-n4ccn(C)c4=O)c(Cl)c3)c2O)cc(N2CC[C@](C)(N)C2)c1=O [Example 759, (S)-3-(3-amino-3-methylpyrrolidin-1-yl)-5-(3′-chloro-5-fluoro-2-hydroxy-4′-(3-methyl-2-oxo-2,3-dihydro-1H-imidazol-1-yl)-[1,1′-biphenyl]-3-yl)-1-methylpyridin-2(1H)-one] | 0.3 to 30 nM | 9.00 to 11.00 | – | – | –
Cn1ccn(-c2ccc(-c3cc(F)cc(-c4ccnc(N5CCN(CCCO)CC5)c4)c3O)cc2Cl)c1=O [Example 617, 1-(3-chloro-5′-fluoro-2′-hydroxy-3′-(2-(4-(3-hydroxypropyl)piperazin-1-yl)pyridin-4-yl)-[1,1′-biphenyl]-4-yl)-3-methyl-1H-imrdazol-2(3H)-one] | 0.3 to 30 nM | 9.00 to 11.00 | – | – | –
CN1CCN(c2ccc(-c3cc(F)cc(-c4cc(C5=CCNCC5)cn(C)c4=O)c3O)cc2Cl)C1=O [Example 401, 5-(3′-chloro-5-fluoro-2-hydroxy-4′-(3-methyl-2-oxoimidazolidin-1-yl)-[1,1′-biphenyl]-3-yl)-1-methyl-1′,2′,3′,6′-tetrahydro-[3,4′-bipyridin]-6(1H)-one] | 300 to 3000 nM | < 7.00 | – | – | –
CC(=O)N1CCN(c2ccc(-c3cc(F)cc(-c4ccnc(N5CCNCC5)c4)c3O)cc2Cl)C1=O [Example 381, 1-acetyl-3-(3-chloro-5′-fluoro-2′-hydroxy-3′-(2-(piperazin-1-yl)pyridin-4-yl)-[1,1′-biphenyl]-4-yl)imidazolidin-2-one] | 300 to 3000 nM | < 7.00 | – | – | –
CN1CCOC2CN(c3cc(-c4cc(F)cc(-c5ccc(-n6ccn(C)c6=O)c(Cl)c5)c4O)ccn3)CC21 (centres unmarked) [Example 649, 1-(3-chloro-5′-fluoro-2′-hydroxy-3′-(2-(4-methylhexahydropyrrolo[3,4-b][1,4]oxazin-6(2H)-yl)pyridin-4-yl)-[1,1′-biphenyl]-4-yl)-3-methyl-1H-imidazol-2(3H)-one] | 30 to 300 nM | 8.00 to 9.00 | – | – | –
Cn1ccn(-c2ccc(-c3cc(=O)[nH]c(-c4cccc(N5CCN(C(C)(C)C)CC5)c4)c3O)cc2Cl)c1=O [Example 1040, 6-(3-(4-(tert-Butyl)piperazin-1-yl)phenyl)-4-(3-chloro-4-(3-methyl-2-oxo-2,3-dihydro-1H-imidazol-1-yl)phenyl)-5-hydroxypyridin-2(1H)-one] | – | – | 300 to 3000 nM | 7.00 to 8.00 | –
C[C@@H]1CN(c2cc(-c3cc(F)cc(-c4ccc(-n5ccn(C)c5=O)c(Cl)c4)c3O)ccc2F)CCN1 [Example 677, (R)-1-(3-chloro-4″,5′-difluoro-2′-hydroxy-3″-(3-methylpiperazin-1-yl)-[1,1′:3′,1″-terphenyl]-4-yl)-3-methyl-1H-imidazol-2(3H)-one] | 0.3 to 30 nM | 9.00 to 11.00 | – | – | –
Cn1ccn(-c2ccc(-c3cc(F)cc(-c4ccnc(N5CCC(O)(C(F)(F)F)C5)c4)c3O)cc2Cl)c1=O (centres unmarked) [Example 784, 1-(3-chloro-5′-fluoro-2′-hydroxy-3′-(2-(3-hydroxy-3-(trifluoromethyl)pyrrolidin-1-yl)pyridin-4-yl)-[1,1′-biphenyl]-4-yl)-3-methyl-1H-imidazol-2(3H)-one] | 30 to 300 nM | 8.00 to 9.00 | – | – | –
CC(C)c1cc(-c2cc(F)cc(-c3cccc(N4CCN(C(C)(C)C)CC4)c3)c2O)cc(Cl)c1-n1ccn(C)c1=O [Example 935, (S)-1-(3″-(4-(tert-butyl)piperazin-1-yl)-3-chloro-5′-fluoro-2′-hydroxy-5-isopropyl-[1,1′:3′,1″-terphenyl]-4-yl)-3-methyl-1,3-dihydro-2H-imidazol-2-one] | – | – | – | < 7.00 | 300 to 3000 nM

— patent US20250179059A1 (The Regents of the University of California, priority 2021, published 2025)
